According to EP0812825B1, “PROPENONE DERIVATIVES” (KYOWA HAKKO KOGYO CO., LTD., priority 1995, dated 1997):

Columns and labels:
HeLa S3 cells = assay: HeLa S3 cell growth inhibition test (neutral red staining); type: cell-based; settings: Homo sapiens; HeLa S3, 72 hours culture with compound
Method: Test Example 1: HeLa S3 Cell Growth Inhibition Test
Each 0.1 ml of HeLa S3 cells which had been prepared to 3 x 10^4 cells/ml using a medium consisting of MEM medium, 10% fetal bovine serum, and 2 mM glutamine was distributed in each well of 96 well-microtiter plate.
HeLa S3 was cultured at 37°C for one night in a CO2 incubator, each 0.05 ml of test compounds which had been appropriately diluted with the culture solution was added thereto, and the mixture was cultured at 37°C for 72 hours in a CO2 incubator. Supernatant was removed, each 0.1 ml of the culture solution containing 0.02% neutral red was added to the residue, the mixture was incubated at 37°C for one hour in a CO2 incubator, and the cells were stained. Supernatant was removed and the residue was washed once with physiological saline. Then, the pigment was extracted with 0.001 N hydrochloric acid/30% ethanol and the absorbance at 550 nm was measured by a microplatereader. A concentration of the test compound (IC50) at which the growth of cell is inhibited by 50% was calculated by comparing the absorbance of non-treated cells and that of cells treated with a predetermined concentration of the test compound.

[1] = tested on: Delayed Type Hypersensitivity Footpad Reaction; assay: Effect against delayed type hypersensitivity footpad reaction (TNBS-immunized mice); type: in vivo, BALB/c mice
Method: Male BALB/c mice (8-weeks-old, Charles River Japan Inc.) were immunized by intradermally injection in the dorsal flank of 100 µl of 10mM 2,4,6-trinitrobenzenesulfonic acid (TNBS) in saline. Five mice were used in each group, that is, control group [0.5% methylcellulose containing 10% dimethyl sulfoxide (DMSO)-administered group], Cyclosporine A (Sandoz)-administered group, and test compound-administered group wherein a determined concentration of test compound suspended in 0.5% methylcellulose containing 10% DMSO was administered. Each of Cyclosporine A and test compound was intraperitoneally administered 30 minutes before and once a day for 4 days after immunization. 50 µl of 10mM TNBS was intradermally injected as a challenging antigen 5 days after immunization when antigen-sensitization was developed. Thickness of both footpads of each animal in each dose of test compound-administered group was measured with a dial thickness gauge 18 hours after antigen challenge, and the value of the difference in thickness of left and right footpad (T) was determined. On the other hand, thickness of both footpads in control group was measured, and the value of the difference in thickness of left and right footpad (C) was determined. Suppression rate in footpad reaction was calculated as [(C - T)/C] x 100.

[2] = tested on: anti-Trinitrophenol (TNP) Antibody Production; assay: Effect against anti-trinitrophenol (TNP) antibody production (serum ELISA); type: in vivo, BALB/c mice
Method: Mice which were used for the effect against delayed type hypersensitivity footpad reaction were bled, the sera were separated by centrifugation at 3000rpm at 4°C for 10 minutes, and then anti-TNP antibody titer was measured. For measuring anti-TNP antibody, enzyme-linked immunosorbent assay (ELISA) was used. […] Peroxidase labeled anti-mouse IgG+IgA+IgM (American Qualex International, Inc.) was added and bound to anti-TNP antibody in culture supernatant which was bound to plate. Orthophenylenediamine (Wako Pure Chemical Industries, Ltd) solution containing hydrogen peroxide (Wako Pure Chemical Industries, Ltd) was added and enzyme reaction was started. After sufficient coloring, coloring reaction was stopped by addition of 10% […] (Wako Pure Chemical Industries, Ltd) and absorbance at 490nm was measured by immunoreader (Intermed Japan, NJ-2000).
Suppression rate of anti-TNP antibody production by test compound was calculated according to the following equation.

T-Cell Proliferation = assay: T-cell proliferation inhibitory test using mouse mixed lymphocyte reaction (MLR), [3H]-thymidine incorporation; type: cell-based; settings: 72 hours
Method: Test Example 5: T-Cell Proliferation Inhibitory Test Using Mouse Mixed Lymphocyte Reaction (MLR)
Spleen was sterilly removed from C3H/He mouse and single cell suspension was prepared. This suspension was irradiated with 2000R X-ray and adjusted into 8 x 10^6 cells/ml. 50 µl of lymph-node cells of BALB/c mouse (containing 2 x 10^5 cells), 50 µl of X-ray irradiated spleen cell suspension of C3H/He mouse (containing 4 x 10^5 cells), and 50 µl of determined concentration of test compound solution were added in each well of 96 well microtiter plate and cultured at 37°C for 72 hours in the CO2 incubator. Eight hours before the end of culture, [^3H]-Thymidine (1.85 KBq) was added. At the end of culture, cells were trapped. on the filter paper by cell harvester and dried. Toluene type scintillator was added and radioactivity of [^3H]-Thymidine incorporated into cells was measured by liquid scintillation counter.
Suppression rate of T-cell proliferation was calculated according to the following equation. Suppression rate (%) =((Radioactivity in control group) - (Radioactivity in test group))/((Radioactivity in control group) - (Radioactivity in X-ray irradiated C3H/He+Radioactivity in Balb/c))× 100 [formula]

[3] = dose 3.0 mg/kg x 5, intraperitoneally
[4] = dose 10 mg/kg x 5, intraperitoneally

| IC50 (HeLa S3 cells) | SMILES | further results |
| --- | --- | --- |
| 2.4 nM | CO/C(=C\c1c[nH]c2ccccc12)C(=O)c1cc(OC)c(OC)c(OC)c1 [Compound 1, (Z)-3-(Indol-3-yl)-2-methoxy-1-(3,4,5-trimethoxyphenyl)-2-propen-1-one] | – |
| 2.5 nM | CCO/C(=C\c1c[nH]c2ccccc12)C(=O)c1cc(OC)c(OC)c(OC)c1 [Compound 2, (Z)-2-Ethoxy-3-(indol-3-yl)-1-(3,4,5-trimethoxyphenyl)-2-propen-1-one] | – |
| 13 nM | CCCO/C(=C\c1c[nH]c2ccccc12)C(=O)c1cc(OC)c(OC)c(OC)c1 [Compound 3, (Z)-3-(Indol-3-yl)-2-propyloxy-1-(3,4,5-trimethoxyphenyl)-2-propen-1-one] | – |
| 3.7 nM | COc1cc(C(=O)/C(=C/c2c[nH]c3ccccc23)OC(C)C)cc(OC)c1OC [Compound 4, (Z)-2-Isopropyloxy-3-(indol-3-yl)-1-(3,4,5-trimethoxyphenyl)-2-propen-1-one] | – |
| 68 nM | COc1cc(C(=O)/C(=C/c2c[nH]c3ccccc23)Oc2ccccc2C)cc(OC)c1OC [Compound 7, (Z)-3-(Indol-3-yl)-2-(2-methylphenoxy)-1-(3,4,5-trimethoxyphenyl)-2-propen-1-one] | – |
| 62 nM | COc1cc(C(=O)/C(=C/c2c[nH]c3ccccc23)Oc2ccc(Br)cc2)cc(OC)c1OC [Compound 8, (Z)-2-(4-Bromophenoxy)-3-(indol-3-yl)-1-(3,4,5-trimethoxyphenyl)-2-propen-1-one] | – |
| 2.2 nM | COc1cc(C(=O)/C(=C/c2c[nH]c3ccccc23)SC)cc(OC)c1OC [Compound 9, (Z)-3-(Indol-3-yl)-2-methylthio-1-(3,4,5-trimethoxyphenyl)-2-propen-1-one] | – |
| 2.5 nM | COc1cc(C(=O)/C(=C/c2c[nH]c3cc(C)ccc23)SCCO)cc(OC)c1OC [Compound 13, (Z)-2-(2-Hydroxyethylthio)-3-(6-methylindol-3-yl)-1-(3,4,5-trimethoxyphenyl)-2-propen-1-one] | – |
| 4.7 nM | COC(=O)CS/C(=C\c1c[nH]c2ccccc12)C(=O)c1cc(OC)c(OC)c(OC)c1 [Compound 16, (Z)-3-(Indol-3-yl)-2-methoxycarbonylmethylthio-1-(3,4,5-trimethoxyphenyl)-2-propen-1-one] | – |
| 2.1 nM | COc1cc(C(=O)/C(=C/c2c[nH]c3ccccc23)CCC(O)CO)cc(OC)c1OC (stereo not drawn) [Compound 19, (E)-2-(3,4-Dihydroxybutyl)-3-(indol-3-yl)-1-(3,4,5-trimethoxyphenyl)-2-propen-1-one] | – |
| 5.6 nM | COc1cc(C(=O)/C(=C/c2c[nH]c3cc(C)ccc23)CCC(O)CO)cc(OC)c1OC (stereo not drawn) [Compound 20, (E)-2-(3,4-Dihydroxybutyl)-3-(6-methylindol-3-yl)-1-(3,4,5-trimethoxyphenyl)-2-propen-1-one] | – |
| 4.8 nM | COc1cc(C(=O)/C(=C/c2c[nH]c3ccccc23)SCC(O)CO)cc(OC)c1OC (stereo not drawn) [Compound 21, (Z)-2-(2,3-Dihydroxypropylthio)-3-(indol-3-yl)-1-(3,4,5-trimethoxyphenyl)-2-propen-1-one] | Suppression rate(%) [1, 3]: 8.5 (3.0) %; Suppression rate(%) [1, 4]: 69 (10) %; Suppression rate(%) [2, 3]: 15 (3.0) %; Suppression rate(%) [2, 4]: 57 (10) %; inhibition at 0.1 µM (T-Cell Proliferation; concentration 10^-7 M, read-out: Suppression rate(%)): 107%; inhibition at 0.01 µM (T-Cell Proliferation; concentration 10^-8 M, read-out: Suppression rate(%)): 106%; inhibition at 0.001 µM (T-Cell Proliferation; concentration 10^-9 M, read-out: Suppression rate(%) (converted)): 7.8% |
| 20 nM | COc1cc(C(=O)/C(=C/c2cn(C)c3ccccc23)SCC(O)CO)cc(OC)c1OC (stereo not drawn) [Compound 22, (Z)-2-(2,3-Dihydroxypropylthio)-3-(1-methylindol-3-yl)-1-(3,4,5-trimethoxyphenyl)-2-propen-1-one] | – |
| 19 nM | COc1cc(C(=O)/C(=C/c2c[nH]c3cccc(C)c23)SCC(O)CO)cc(OC)c1OC (stereo not drawn) [Compound 23, (Z)-2-(2,3-Dihydroxypropylthio)-3-(4-methylindol-3-yl)-1-(3,4,5-trimethoxyphenyl)-2-propen-1-one] | – |
| 15 nM | COc1cc(C(=O)/C(=C/c2c[nH]c3cccc(Cl)c23)SCC(O)CO)cc(OC)c1OC (stereo not drawn) [Compound 24, (Z)-3-(4-Chloroindol-3-yl)-2-(2,3-dihydroxypropylthio)-1-(3,4,5-trimethoxyphenyl)-2-propen-1-one] | – |
| 6.3 nM | COc1cc(C(=O)/C(=C/c2c[nH]c3ccc(F)cc23)SCC(O)CO)cc(OC)c1OC (stereo not drawn) [Compound 27, (Z)-2-(2,3-Dihydroxypropylthio)-3-(5-fluoroindol-3-yl)-1-(3,4,5-trimethoxyphenyl)-2-propen-1-one] | – |
| 6.3 nM | COc1cc(C(=O)/C(=C/c2c[nH]c3cc(C)ccc23)SCC(O)CO)cc(OC)c1OC (stereo not drawn) [Compound 28, (Z)-2-(2,3-Dihydroxypropylthio)-3-(6-methylindol-3-yl)-1-(3,4,5-trimethoxyphenyl)-2-propen-1-one] | – |
| 18 nM | CCc1ccc2c(/C=C(\SCC(O)CO)C(=O)c3cc(OC)c(OC)c(OC)c3)c[nH]c2c1 (stereo not drawn) [Compound 29, (Z)-2-(2,3-Dihydroxypropylthio)-3-(6-ethylindol-3-yl)-1-(3,4,5-trimethoxyphenyl)-2-propen-1-one] | – |
| 7.2 nM | COc1cc(C(=O)/C(=C/c2c[nH]c3cc(Cl)ccc23)SCC(O)CO)cc(OC)c1OC (stereo not drawn) [Compound 31, (Z)-3-(6-Chloroindol-3-yl)-2-(2,3-dihydroxypropylthio)-1-(3,4,5-trimethoxyphenyl)-2-propen-1-one] | – |
| 5.9 nM | COc1cc(C(=O)/C(=C/c2c[nH]c3cc(F)ccc23)SCC(O)CO)cc(OC)c1OC (stereo not drawn) [Compound 32, (Z)-2-(2,3-Dihydroxypropylthio)-3-(6-fluoroindol-3-yl)-1-(3,4,5-trimethoxyphenyl)-2-propen-1-one] | – |
| 4.4 nM | COc1cc(C(=O)C(=Cc2c[nH]c3ccccc23)SCC(O)C(O)CO)cc(OC)c1OC [Compound 35, 3-(Indol-3-yl)-2-[(2S),(3R)-2,3,4-trihydroxybutylthio]-1-(3,4,5-trimethoxyphenyl)-2-propen-1-one] | – |
| 5.3 nM | COc1cc(C(=O)C(=Cc2c[nH]c3cc(C)ccc23)SC[C@@H](O)[C@H](O)CO)cc(OC)c1OC [Compound 36, 3-(6-Methylindol-3-yl)-2-[(2S),(3R)-2,3,4-trihydroxybutylthio]-1-(3,4,5-trimethoxyphenyl)-2-propen-1-one] | – |
| 7.1 nM | COc1cc(C(=O)C(=Cc2c[nH]c3cc(C)ccc23)SC[C@H](O)[C@@H](O)CO)cc(OC)c1OC [Compound 37, 3-(6-Methylindol-3-yl)-2-[(2R),(3S)-2,3,4-trihydroxybutylthio)-1-(3,4,5-trimethoxyphenyl)-2-propen-1-one] | – |
